Data on four compounds can be found in patent publication US20130023553A1, “PEGYLATED OPIOIDS WITH LOW POTENTIAL FOR ABUSE AND SIDE EFFECTS” (Nektar Therapeutics, priority 2010, published 2013).

In general, Ki refers to the dissociation constant of the complex between target and ligand, obtained from inhibition or displacement. For orientation: EC50 means the concentration that produces a half-maximal response. As usually defined, the ED50 is the dose that gives a 50% effect, or the effect in half of the subjects. In general, bioavailability refers to the share of a dose that reaches the circulation, judged against a reference dose that is usually intravenous. For orientation: AUC means concentration integrated over time. As usually defined, the MRT last is a mean duration of stay, worked out from the concentration-time curve. For orientation: AUC(0-inf) means total exposure, with the tail of the curve extrapolated. For orientation: Cmax means the maximum level reached in the sampled fluid or tissue. Usually Tmax stands for the time at which the peak concentration occurs. As a reminder, the clearance is the rate of elimination divided by the concentration.

SMILES strings stand for the structures. Read-outs that look alike come from different tables or passages of the source.

The target in series [1] is T1, human mu opioid receptor (Homo sapiens, UniProt P35372).
T1 construct: expressed in transfected cells; host or cells: CHO cells
Description: biochemical. Format: binding. As to the method:
(§1) Radioligand displacement was measured using scintillation proximity assays (SPA).
(§2) Briefly, serial dilutions of the test compounds were placed in a 96-well plate to which were added SPA beads, membrane and radioligand. The assay conditions for each opioid receptor subtype are described in Table 10 below. The plates were incubated for 8 hours-overnight at room temperature, spun at 1000 rpm to pellet the SPA beads, and radioactivity was measured using the TopCount® microplate Scintillation counter. Specific binding at each concentration of test compound was calculated by subtracting the non-specific binding measured in the presence of excess cold ligand. IC50 values were obtained by non-linear regression of specific binding versus concentration curves and Ki values were calculated using Kd values that were experimentally pre-determined for each lot of membrane preparations.

Series [2] addresses T1, human mu opioid receptor. Description: cell-based. Conditions: for Emax: read-out: % max effect, mu opioid receptor. As to the method:
(§3) Studies were conducted in CHO cells heterologously expressing the cloned human mu, kappa or delta opioid receptors. cAMP was measured using a cAMP HiRange homogenous time-resolved fluorescence assay (HTRF Assay), that is based on a competitive immunoassay principle (Cisbio, Cat.#62AM6PEC).
(§4) Briefly, suspensions of cells expressing either the mu, kappa or delta opioid receptors were prepared in buffer containing 0.5 mM isobutyl-methyl xanthine (IBMX). […] EC50 values were calculated for each compound from a sigmoidal dose-response plot of concentrations versus maximum response. To determine if the compounds behaved as full or partial agonists in the system, the maximal response at the highest tested concentrations of compounds were compared to that produced by a known full agonist.

Another series deals with CD-1 male mice. As to the kind of experiment: Phenylquinone writhing analgesic assay. It counts as in vivo. As to conditions: Mus musculus; mPEGn-O-HydroxyCodone series. As to the method:
The assay utilized CD-1 male mice (5-8 mice per group), each mouse being approximately 0.020-0.030 kg on the study day. Mice were treated according to standard protocols. Mice were given a single “pretreatment” dose of a compound lacking covalent attachment of a water-soluble, non-peptidic oligomer (i.e., non-PEG oligomer-modified parent molecule), a corresponding version comprising the compound covalently attached to a water-soluble, non-peptidic oligomer (i.e., the conjugate), or control solution (IV, SC, IP or orally) thirty minutes prior to the administration of the phenylquinone (PQ) solution. Each animal was given an IP injection of an irritant (phenylquinone, PQ) that induces “writhing” which may include: contractions of the abdomen, twisting and turning of the trunk, arching of the back, and the extension of the hindlimbs. Each animal was given an IP injection of PQ (1 mg/kg PQ, 0.1 mL/10 g bodyweight). After the injection, the animals were returned to their observation enclosure and their behavior was observed. Contractions were counted between 35 and 45 minutes after the ‘pretreatment”. The animals were used once. Each tested article was dosed at a range between 0.1 and 100 mg/kg (n=5-10 animals/dose).
For orientation: Writhing tests count abdominal constrictions after an irritant is injected.

Series [3] can be described thus: Pharmacokinetics following oral (PO) dosing. Format: in vivo, Sprague-Dawley rats. Conditions: male, Sprague-Dawley, rat, plasma; for Cmax: read-out: Cmax; for Tmax: read-out: Tmax (converted). The source says:
(§5) There were 3 rats/group. All animals were food fasted overnight. […] The predose sample was collected from the JVC.
(§6) Following the last collection point, the animals were euthanized.

The nature of series [4]: Pharmacokinetics following intravenous (IV) dosing. Conditions: male, Sprague-Dawley, rat, plasma; for Cmax: read-out: Cmax; for Vd: read-out: Vss. It counts as in vivo, Sprague-Dawley rats.
Source text: as §5, §6

The target in series [5] is T2, human kappa opioid receptor (Homo sapiens, UniProt P41145).
T2 construct: expressed in transfected cells; host or cells: CHO cells
Description: biochemical. It counts as binding. As to the method:
as §1, §2

Series [6] concerns the target T2, human kappa opioid receptor. As to the kind of experiment: cell-based. As to the method: as §3, §4
In a further series the test system is mice. Description: Oral dose giving maximal analgesia. Format: in vivo.
A further series deals with squirrel monkeys. Description: Monkey self-administration model of addictive potential. From the text:
Dose-related effects of the test articles were examined, using two or more doses of each drug in 3-4 subjects in a double alternation schedule in which each unit dose (or vehicle) was used in two consecutive sessions before a change in unit dose.
Addictive potential of opioid compounds and opioid conjugates of the invention may be assessed through the use of squirrel monkey models as known in the art.
Under the double alternation schedule, each unit dose (or vehicle) was available for intravenous self-administration for two consecutive sessions before the unit dose was changed. In this way, it was possible to establish the function relating unit dose of intravenous drug to (i) number of injections per session, and/or (ii) the percentage of total responses that occur on the lever leading to self-administration (injection-lever responding, % ILR). Unit doses of drugs ranged from 0.01 to 3.2 mg/kg/injection.

For the next series, the system named is Male CD-1 mice. As to the kind of experiment: Assessment of CNS side effects in mice (Straub tail, muscle rigidity, pinna reflex). As to conditions: for Loss Pinna, number of animals responding (N=2) / Muscle Rigidity, number of animals responding (N=2) / Straub Tail Effect, number of animals responding (N=2): oral. The source says: The objective of this study was to provide an approximation of the side effect profile of various oligomeric conjugates for comparison to the parent compounds by measuring various gross behavioral and physiological signs following administration of compound.
Additional evaluations included muscle rigidity and pinna reflex.
Male CD-1 mice from Charles River Laboratories, Raleigh, N.C., weighing from 16-18 grams were maintained on a regular light/dark cycle (lights on 0600-1800) with ad libitum food and water for 1 week before commencement of testing. N=2 per treatment condition, i.e., separate mice for each dose of each test article, injection was performed via a 25-gauge ⅝-inch needle on a 1-mL tuberculin syringe for the s.c. route and a 22-gauge stainless steel mouse feeding tube for the p.o. route (Becton, Dickinson & Co., Franklin Lakes, N.J.). Each treatment condition was divided about evenly between two observers. […] Test article was administered (s.c. or p.o., and the mouse was placed immediately in the observation chamber). One-half, 1, 2, and 3 hours later, the animal was observed undisturbed for gross signs such as locomotor ataxia, tremor, hyperactivity, hypoactivity, convulsions, hindlimb splay, and Straub tail, and then removed and assessed for muscle tone (normal, rigid, flaccid), pinna reflex (presence or absence), righting reflex (intact or lost), and placing (whether or not the forepaws are extended when the mouse is placed near a surface).
Each of the tables show the number of animals responding at each dose, where N=2. […] A bolded value indicates the lowest dose at which a response was detected.

Setting [7] is: CHO-K1 membranes, [3H]DAMGO 6 nM, read-out: Ki, Mu opioid receptor.
The mark [8] stands for this setting: maximal response at the highest tested concentration.
The mark [9] stands for this setting: read-out: EC50, mu opioid receptor.
Setting [10] is: hydroxycodone series, 5.0 mg/kg oral, Mean ± SD.
Setting [11] is: hydroxycodone series, 5.0 mg/kg oral, Mean ± SD, * n = 2.
[12] abbreviates: hydroxycodone series, 5.0 mg/kg oral, Mean ± SD, * n = 2, read-out: T1/2(z).
[13] abbreviates: hydroxycodone series, 5.0 mg/kg oral, median value.
Where [14] appears, read: hydroxycodone series, 1 mg/kg IV, Mean ± SD.

T2 sequence (P41145 whole entry): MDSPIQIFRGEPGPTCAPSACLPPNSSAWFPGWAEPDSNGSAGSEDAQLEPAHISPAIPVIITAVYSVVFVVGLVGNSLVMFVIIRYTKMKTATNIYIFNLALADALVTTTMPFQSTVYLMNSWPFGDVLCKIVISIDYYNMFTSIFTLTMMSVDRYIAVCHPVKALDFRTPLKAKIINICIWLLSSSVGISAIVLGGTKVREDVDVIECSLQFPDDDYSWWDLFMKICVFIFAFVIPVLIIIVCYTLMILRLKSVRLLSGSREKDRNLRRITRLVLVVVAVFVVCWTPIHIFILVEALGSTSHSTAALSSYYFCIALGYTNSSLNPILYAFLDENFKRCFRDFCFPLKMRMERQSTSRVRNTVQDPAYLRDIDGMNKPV
T1 sequence (P35372 whole entry): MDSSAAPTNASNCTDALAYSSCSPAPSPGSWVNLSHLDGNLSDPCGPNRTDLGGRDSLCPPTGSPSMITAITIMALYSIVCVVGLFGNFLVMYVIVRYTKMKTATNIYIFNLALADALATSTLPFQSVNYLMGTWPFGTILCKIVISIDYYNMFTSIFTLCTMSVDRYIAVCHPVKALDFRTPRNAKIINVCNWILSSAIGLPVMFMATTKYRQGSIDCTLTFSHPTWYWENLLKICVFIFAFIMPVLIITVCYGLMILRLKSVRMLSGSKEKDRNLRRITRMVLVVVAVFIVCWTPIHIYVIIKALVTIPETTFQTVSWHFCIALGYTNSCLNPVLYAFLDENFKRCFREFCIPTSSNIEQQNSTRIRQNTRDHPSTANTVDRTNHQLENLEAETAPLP

In the case of `COCCOC1CCC2(O)C3Cc4ccc(OC)c5c4C2(CCN3C)C1O5` (stereo not drawn) [α-6-mPEG1-O-hydroxycodone, α-6-mPEG1-O-oxycodone], the Ki on human mu opioid receptor [1] (setting [7]) amounted to 654 nM. Further, on human mu opioid receptor [2] (setting [8]), the Emax is 102%. For the same compound, the EC50 on human mu opioid receptor [2] (setting [9]) was found to be 3.84 µM. This compound came in with an ED50 in the series on CD-1 male mice of 6.06 mg/kg. This compound yielded a bioavailability in series [3] (po, 5 mg/kg) of 2.1%. In [3] (setting [10]), the AUC was 17.5 ng·h/mL, the MRT last is 1.11 h and the Cmax was 14.3 ± 6.43 ng/mL. This compound also showed an AUC(0-inf) in [3] (setting [11]) of 19.2 ng·h/mL. In series [3] (setting [12]), the half-life was 57.7 min. The Tmax in [3] (setting [13]) is 15 min.
As for `COCCOCCOCCOCCOC1CCC2(O)C3Cc4ccc(OC)c5c4C2(CCN3C)C1O5` (stereo not drawn) [α-6-mPEG4-O-hydroxycodone, α-6-mPEG4-O-oxycodone], at human mu opioid receptor [1], the affinity, expressed as Ki, was 893 nM. In series [4] (setting [14]), this compound gave an AUC of 192 ng·h/mL, an AUC(0-inf) of 193 ng·h/mL, an MRT last of 35.6 min and a clearance of 86.5 ± 6.36 mL/min/kg. Further, in series [4] (setting [14]), the Cmax was 537 ± 31 ng/mL and the Vd was 3.34 ± 0.113 L/kg. Also, in series [4] (hydroxycodone series, 1 mg/kg IV, Mean ± SD, read-out: T1/2(z)), the half-life was found to be 43.6 ± 3.27 min. Besides, on human mu opioid receptor [2], a half-maximal effect (EC50) was put at 3.72 µM and the Emax is 109%. The compound also returned an ED50 with CD-1 male mice of 17.3 mg/kg. Also, in series [3] (po, 5 mg/kg), the bioavailability amounted to 11%. In addition, in [3] (setting [10]), the AUC is 106 ng·h/mL, the MRT last is 1.61 h and the Cmax is 55.8 ± 4.69 ng/mL. In [3] (setting [11]), this compound gave an AUC(0-inf) of 88 ng·h/mL. The half-life in series [3] (setting [12]) was determined as 70.3 min. Moreover, the Tmax in series [3] (setting [13]) was 15 min.
In the case of `COCCOCCOC1C=CC2C3Cc4ccc(OC)c5c4C2(CCN3C)C1O5` (stereo not drawn) [α-6-mPEG2-O-codeine], the Ki at human mu opioid receptor [1] (setting [7]) turned out to be 1380 nM. In series [5], the Ki came out at 22.6 µM. In series [4] (iv, 1 mg/kg), this compound showed an area under the curve (AUC) of 242 ng·h/mL, an AUC(0-inf) of 243 ng·h/mL, an MRT last of 31.5 min and a clearance of 69 ± 7.57 mL/min/kg. Further, in series [4] (iv, 1 mg/kg), the Cmax was found to be 685 ± 41 ng/mL and the Vd was found to be 2.25 ± 0.166 L/kg. Also, the half-life in series [4] (iv, 1 mg/kg, read-out: T1/2(2)) was determined as 35.3 ± 2.78 min. Also, the Emax on human mu opioid receptor [2] (setting [8]) is 75%. The EC50 on human mu opioid receptor [2] (setting [9]) came to 5.14 µM. The compound further had an EC50 in series [6] of 40.1 µM. Besides, in series [6] (maximal response at the highest tested concentration, read-out: % max effect, kappa opioid receptor), the Emax came to 59%. Also, in series [3] (po, 5 mg/kg), the AUC was 5.85 ng·h/mL, the AUC(0-inf) was 6.98 ng·h/mL, the MRT last was 1.03 h and the bioavailability worked out at 0.57%. Moreover, in series [3] (po, 5 mg/kg), the Cmax turned out to be 3.47 ± 0.606 ng/mL and the Tmax is 15 min. Also, the half-life in series [3] (po, 5 mg/kg, read-out: T1/2(2)) was determined as 97.6 ± 28.4 min.
Consider `CN1CC[C@]23c4c5ccc(O)c4O[C@H]2[C@@H](O)C=C[C@H]3[C@H]1C5` [Morphine, morphine, reference compound], for which, in the series on mice, the “oral dose at which maximal analgesia was obtained” value is listed as 20 mg/kg. Besides, the “injection lever responses (% ILR)” value with squirrel monkeys (0.03 mg/kg/injection) was 100%. For the same compound, the “subjects showing addictive behavior” value in the series with squirrel monkeys (0.1 mg/kg/injection) was 100%. For the same compound, the “mice showing the straub tail response” value with Male CD-1 mice (oral doses up to 100 mg/kg) is 100%. The “Loss Pinna, number of animals responding (N=2)” value with Male CD-1 mice (1 mg/kg) stood at 0; with Male CD-1 mice (3 mg/kg), 2; in the series on Male CD-1 mice (10 mg/kg), 1; with Male CD-1 mice (30 mg/kg) it was 2; in the series on Male CD-1 mice (100 mg/kg), 2; in the series on Male CD-1 mice (300 mg/kg) it was 2. The “Muscle Rigidity, number of animals responding (N=2)” value was 0 with Male CD-1 mice (1 mg/kg); 0 in the series on Male CD-1 mice (3 mg/kg); 1 in the series on Male CD-1 mice (10 mg/kg); 2 in the series with Male CD-1 mice (30 mg/kg); 2 in the series with Male CD-1 mice (100 mg/kg); 2 in the series on Male CD-1 mice (300 mg/kg). For the same compound, the “Straub Tail Effect, number of animals responding (N=2)” value with Male CD-1 mice (1 mg/kg) turned out to be 0; with Male CD-1 mice (3 mg/kg), 2; in the series with Male CD-1 mice (10 mg/kg), 2; in the series with Male CD-1 mice (30 mg/kg) it was 2; in the series on Male CD-1 mice (100 mg/kg), 1; in the series on Male CD-1 mice (300 mg/kg), 1.
